Reference: paper PMC6487500 (Molecular imaging and biology : MIB : the official …, 2019)

Tests used:
[1] = system: BT474 xenografts; assay: Tissue distribution in mice bearing BT474 xenografts; assay type: in vivo, mouse; conditions: BT474 xenograft mice, n = 5
[2] = system: BT474 cells; assay: Cell binding assay and specific binding; parameters: species or system human; conditions: at 60 min
[3] = 100 ± 20 μCi i.v., after PET/CT at 1 h

tissue distribution, contralateral muscle [1, 3]: 1.2 ± 0.4 %ID/g
tissue distribution, liver [1, 3]: 4.3 ± 1.3 %ID/g
tissue distribution, tumor uptake [1, 3]: 2.2 ± 1.7 %ID/g
tissue distribution, lungs ([1]; 100 ± 20 μCi i.v., at 1 h): 4.2 ± 2.6 %ID/g
T/M ratio, tissue distribution ([1]; non-blocked, after PET/CT at 1 h): 1.7 ± 0.8
SMILES: [68Ga+3].[Cl-].[Cl-].[Cl-] [[^68Ga]GaCl3]
specific BT474 cell binding [2]: 18.8 ± 2.5%
